{"source": "patent US11351218B2", "about": "“Composition for preventing or treating glioblastoma comprising Platycodon grandiflorum A. De Candolle, Scutellaria baicalensis, Phellodendron amurense Ruprecht or Rubus coreanus” (University-Industry Cooperation Group of Kyung Hee …, priority 2019, dated 2022)", "key": {"U87MG cells": {"tested_on": "U87MG cells", "test": "GFP-LC3B puncta assay (confocal microscopy), U87MG cells", "assay_type": "cell-based, human", "conditions": "10 μM PD, 24 hours", "description": "The cells transiently expressing GFP-LC3 (green) were treated with DMSO or PD (10 μM) for 24 hours and analyzed by confocal microscopy. Nuclei were stained with DAPI (blue). Quantification shown on the right graph represents mean GFP-LC3B puncta per cells from three independent experiments±SD.\nCultured cells seeded in plates with microscope coverslips were transfected with a pGFP-LC3B plasmid using Lipofectamine 3000 (Thermo Fisher Scientific) according to the manufacturer's instructions. After the transfection, the cells were fixed with 4% paraformaldehyde (PFA) in phosphate-buffered saline (PBS) at room temperature for 10 minutes. The images were examined under a laser confocal microscope (Zeiss, Oberkochen, Baden-Wurttemberg, Germany).\nTo confirm the western blot data, the LC3B accumulation in GBM cells was monitored using a confocal microscope. Both U87MG and U373MG cells transfected with a green fluorescent protein (GFP)-tagged LC3 expression plasmid were treated with 10 μM PD for 24 hours and examined under a confocal microscope."}, "U87MG and U373MG cells [1]": {"tested_on": "U87MG and U373MG cells", "test": "WST1 cell viability assay, GBM cells", "assay_type": "cell-based, human", "description": "FIGS. 6A and 6B show the results that PD induces a decrease in cell viability and vacuole formation. […] Data shown represent the means of quintuplicate measurements which were repeated three times. The results are presented as a percentage of control (means±SD).\n(§1) Cell cytotoxicity was assessed by WST1 assay. U87 and U373 cells were each seeded in a 96-well plate (5×10^3 cells/well) and treated with different concentrations of platycodin D (PD). Then, cells were incubated with a WST1 reagent (Dogen, Seoul, Korea) for 2 hours before reading the plate. Absorbance was measured at 450 nm using an ELISA reader (Versa Max, Molecular Devices, Sunnyvale, Calif., USA)."}, "[2]": {"tested_on": "A549, H358, MCF7, HT29 and HepG2 cells", "test": "WST1 cell viability assay in various cancer cell lines", "assay_type": "cell-based", "conditions": "different concentrations, 48 hours, all cell lines tested", "description": "FIGS. 9A to 9C show the results that PD decreases cell viability and vacuole formation in various cancer cell lines. FIGS. 9A and 9B show the results in which indicated cells were treated with different concentrations of PG or PD for 48 hours and cell viability was measured by WST1 assay. Data shown represent the means of quintuplicate measurements which were repeated three times. The results are presented as a percentage of control (means±SD).\nas §1\nPreviously, PD was reported to inhibit cell viability in various cancer cell lines. To further confirm the effects of PD on the cytotoxicity of cancer cells, WST1 assay was performed following treatment with different concentrations of PD."}, "[3]": {"tested_on": "A549, H358, MCF7, HT29 and HepG2 cells", "test": "Cell morphology (vacuoles) under optical microscope in various cancer cell lines", "assay_type": "cell-based", "conditions": "PG 500 μg/mL or PD 10 μM, 24 hours"}, "U87MG and U373MG cells [4]": {"tested_on": "U87MG and U373MG cells", "test": "mRFP-GFP-LC3 tandem reporter (autolysosome formation) in GBM cells", "assay_type": "cell-based, human", "conditions": "PD 10 μM or Rapa 1 μM, 24 hours", "description": "Cells stably expressing mRFP-GFP-LC3 were incubated with PD (10 μM) or Rapa (1 μM) for 24 hours, and then analyzed by confocal microscopy. The merged images (yellow) show an overlap between GFP-LC3 (green) and mRFP-LC3 (red). The panels on the right are higher-magnification images of the boxed regions.\nIn order to examine whether PD induces accumulation of autophagosomes by inhibiting their maturation into autolysosomes, a tandem-tagged fluorescent reporter, mRFP-GFP-LC3, was used. The GFP fluorescence of the fusion protein is rapidly quenched in lysosomal acidic conditions, whereas the RFP fluorescence is relatively stable. The yellow dots in the merged image are indicative of autophagsomes and […] dots correspond to autolysosomes. The mRFP-GFP-LC3 plasmids were transfected into U87MG and U373MG cells, treated with PD for 24 hours, and subjected to confocal microscopy."}, "U87MG and U373MG cells [5]": {"tested_on": "U87MG and U373MG cells", "test": "DQ Red-BSA trafficking assay (lysosomal proteolytic activity) in GBM cells", "assay_type": "cell-based, human", "conditions": "PD 10 μM or BafA1 (100 μM), 24 hours", "description": "Cells were incubated with DMSO, PD (10 μM), or BafA1 (100 μM) for 24 hours, and then the cells were treated with DQ-BSA ([…]) for 30 minutes. Data shown are representative images of each sample. The fluorescence intensity of DQ-BSA was quantified with ImageJ software. More than 100 cells were counted in each condition and the number of puncta per cells is presented as means±SD from three independent experiments.\nCells were placed on coverslips prior to treatment with the materials and continuously loaded with DQ Red-BSA (Invitrogen) at a working concentration of 10 μg/mL in a culture medium at 37° C. for 30 minutes. The cells were fixed in 4% PFA and then subjected to DAPI staining. The images were examined under a Zeiss laser confocal microscope. The number of DQ Red-BSA spots was quantified using ImageJ software.\nTo confirm the lysosomal activity in PD-treated GBM cells, the DQ-BSA assay was performed to assess lysosomal protein degradation. In DQ-BSA, which is a red BODIPY dye conjugated to bovine serum albumin (BSA), the BSA is so heavily conjugated that the red fluorescence is self-quenched. Upon cleavage of the DQ-BSA by proteolytic enzymes in lysosomal compartments, this quenching is relieved, generating red fluorescence. Thus, DQ-BSA is a useful tool to visualize a lysosomal proteolytic activity."}, "U87MG and U373MG cells [6]": {"tested_on": "U87MG and U373MG cells", "test": "Clonogenic assay, GBM cells", "assay_type": "cell-based, human", "conditions": "PD 10 μM or 20 μM, 7 days", "description": "FIGS. 19A and 19B show the results that MβCD restores PD-mediated decrease in cell viability. […] Data shown represent the means of quintuplicate measurements which were repeated three times. The results are presented as a percentage of control (means±SD).\nApproximately 2×10^3 cells were seeded into each 6-well plate and then treated as described in FIG. 19. After 7 days, the cells were washed with PBS and stained with 0.5% crystal violet.\nFurthermore, as can be confirmed in FIG. 19B, a colony formation assay was performed to confirm the effects of MβCD on PD-mediated GBM cell death."}}, "data": [{"molecule": "C[C@@H]1O[C@@H](O[C@H]2[C@H](OC(=O)[C@]34CCC(C)(C)C[C@H]3C3=CC[C@@H]5[C@@]6(C)C[C@H](O)[C@H](O[C@@H]7O[C@H](CO)[C@@H](O)[C@H](O)[C@H]7O)C(CO)(CO)[C@@H]6CC[C@@]5(C)[C@]3(C)C[C@H]4O)OC[C@H](O)[C@@H]2O)[C@H](O)[C@H](O)[C@H]1O[C@@H]1OC[C@@H](O)[C@H](O[C@@H]2OC[C@](O)(CO)[C@H]2O)[C@H]1O", "note": "[PD, platycodin D]", "values": [{"measurement": "fold increase of GFP-LC3 puncta per cell vs DMSO", "setting": "U87MG cells", "value": 10.1, "unit": "fold"}, {"measurement": "GFP-LC3 puncta per cell", "setting": "U87MG cells; mean±SD", "value": "38.03±5.75"}, {"measurement": "viability of GBM cells", "setting": "U87MG and U373MG cells [1]; 10 μM PD, 3 days", "value": "reduced the viability"}, {"measurement": "percentage of viable cells", "setting": "U87MG and U373MG cells [1]; PD 0-20 μM, 48 hours, dose-dependent", "value": "significantly decreased"}, {"measurement": "cell viability", "setting": "U87MG and U373MG cells [1]; PD 10 μM, 48 hours, GBM cells, percentage of control", "value": "approximately 60%"}, {"measurement": "cell viability", "setting": "[2]", "value": "suppressed the-viability in a dose-dependent manner"}, {"measurement": "vacuoles", "setting": "[3]", "value": "visible vacuoles were observed"}, {"measurement": "mRFP and GFP dots of mRFP-GFP-LC3", "setting": "U87MG and U373MG cells [4]", "value": "GFP-positive dots were retained and colocalized with mRFP dots"}, {"measurement": "DQ-BSA red fluorescence vs DMSO", "setting": "U87MG and U373MG cells [5]", "value": "significant reduction"}, {"measurement": "colony-forming ability", "setting": "U87MG and U373MG cells [6]", "value": "abolished"}]}]}
